Measured values as given in patent publication US20220096516A1, “OLIGONUCLEOTIDE MOLECULE AND APPLICATION THEREOF IN TUMOR THERAPY” (Ractigen Therapeutics, priority 2019, published 2022).
d = 2'-deoxy (DNA); r = 2'-OH (RNA)

Columns and labels:
[1] = test system: U87MG transplanted tumor; assay: U87MG transplanted tumor growth in nude mice; set-up: species or system BALB/c nude mice; settings: U87MG xenograft, day 13; saRNA (in vivo-jetPEI) 1 mg/kg intratumor days 1, 4, 7, 10; regorafenib 3 mg/kg intragastric daily day 1-12; control 406%
Procedure: To prepare the saRNA formulation, in vivo-jetPEI (201-10G, Polyplus-transfection, France) was adopted as an saRNA delivery system. The preparation process is briefly described as follows: an saRNA was first diluted in a 10% glucose solution to give a solution A; a required amount of in vivo-jetPEI was diluted in 10% glucose solution to give a solution B; then, equal volumes of the solution A and the solution B were mixed (nitrogen-to-phosphorus ratio: 8; final concentration of glucose: 5%). After mixing the mixture was let to stand under room temperature for 15 minutes for later use.
The glioma cell line U87MG were grown to the logarithmic phase, counted, then subcutaneously inoculated at a concentration of 9×10^7 cells/mL into the right armpit of BALB/c nude mice at 0.1 mL per mouse. […] After the initial administration, the long diameter and short diameter of each tumor were measured with a vernier caliper every two days. The tumor volume was calculated according to the formula V=(l×w^2)/2, wherein 1 represents the longest diameter of the tumor and w represents the diameter parallel to the surface of the tumor and perpendicular to the long diameter. A tumor growth curve and size and morphology of the tumor anatomy were recorded during the administration.

[2] = test system: prostatic cancer cell line PC3; assay: Cell viability by CCK-8 method, PC3; assay type: cell-based, human; settings: PC3, 10 nM, 72 h, FIG. 7B
Procedure: (§1) 8 LHPP promoter-targeting saRNAs were individually transfected into cancer cells at 10 nM for 72 h. In FIG. 7A, the expression level of LHPP mRNA was analyzed by RT-qPCR. In FIG. 7B, cell viability in the saRNA treatment group was evaluated by the CCK-8 method and recorded as a percentage relative to the viability of cells in a control (Mock) treatment group.
(§2) The cell viability was detected by the following CCK-8 method: the cCells were plated into a 96-well plate at 3-5×10^3 cells/well, cultured overnight, and transfected with the oligonucleotide duplexes. After 72 hour of transfection, 10 uL of CCK-8 solution (Dojindo Molecular Technologies) was added into each well. After 1 hour of incubation at 37° C., a microplate reader was used to measure absorbances at 450 nm.
(§3) In order to further evaluate the effect of LHPP saRNAs in inducing the mRNA expression of the LHPP gene and inhibiting the proliferation of cancer cells, eight screened saRNAs (RAG7-132, RAG7-133, RAG7-139, RAG7-177, RAG7-178, RAG7-694, RAG7-707 and RAG7-892) each were transfected into the liver cancer cell lines Huh7 (Medical Cell Resource Center, Tohoku University, Japan), HepG2 (ATCC), Hep3B (ATCC), Li-7 (Medical Cell Resource Center, Tohoku University, Japan) and SK-HEP-1 (ATCC), a lung cancer cell line A549 (ATCC), a bladder cancer cell line T24 (ATCC), a prostatic cancer cell line PC3 (ATCC), and a glioma cell line U87MG (ATCC). The mRNA expression and cell viability of the transfected cells were measured.

[3] = test system: LHPP gene; assay: LHPP mRNA expression by RT-qPCR in cancer cell lines; assay type: cell-based, human; settings: 72 h
Procedure: as §1, with “into liver” for “into”, “6A,” for “7A,”, “6B,” for “7B,”
as §1, §3

[4] = test system: Hep3B cells; assay: Cell viability by CCK-8 method, Hep3B; assay type: cell-based, human; settings: 10 nM, 72 h, FIG. 6B
Procedure: as §1, with “into liver” for “into”, “6A,” for “7A,”, “6B,” for “7B,”
as §2, with “nm. […]” for “nm.”

[5] = test system: HepG2 cells; assay: saRNA in combination with chemical drugs, CCK-8 viability and combination index (Compusyn), HepG2; assay type: cell-based, human
Procedure: The saRNAs were transfected into cancer cells at different concentrations in combination with a panel of chemical drugs. In FIG. 8A, cell viability in the saRNA treatment group was evaluated by the CCK-8 method and recorded as a percentage relative to the viability of cells in a control (Mock) treatment group. In FIG. 8B, Compusyn© version 1.0 software was used to draw a combination index graphs; and to calculate combination index values as shown in FIG. 8C.
The compounds used in the study included: Sorafenib (Sora) (SELLECK, S1040), Lenvatinib (Lenv) (SELLECK, S1164), Regorafenib (Rego) (SELLECK, S1178), and Cabozantinib (Cabo) (SELLECK, S1119). Cells were transfected with each candidate saRNAs at varying concentration gradients for 24 hours. Thereafter, the aforementioned compounds were added to the transfected cells at a concentration of 5 μM and the cells were incubated with the compounds for 48 hours. Cell viability was measured using the CCK-8 method. Compusyn© version 1.0 software (ComboSyn, Inc. Paramus, N.J., USA) was used to analyze the combination index (CI) of drugs, wherein CI<1 represented a synergistic effect, CI=1 represented an additive effect, and CI>1 represented an antagonistic effect.

**Q.** What does the source list for “RAG7-133: saRNA duplex; sense GCUCUUUGUCCGCUGAUCUTT (SEQ ID NO: 1), antisense AGAUCAGCGGACAAAGAGCTT (SEQ ID NO: 165) (sugars from the 5' end r19 d2, backbone not given here)”?
**A.** tumor volume increase compared with that at the beginning of treatment [1]: 167%; cell proliferation (cell viability, CCK-8) [2]: inhibited cell proliferation; expression of LHPP gene (mRNA) ([3]; Hep3B, 10 nM, FIG. 6A): induced the expression of LHPP gene to different degrees; expression of LHPP gene (mRNA) ([3]; HepG2, 10 nM, FIG. 6A): induced the expression of LHPP gene to different degrees; expression of LHPP gene (mRNA) ([3]; Huh7, 10 nM, FIG. 6A): induced the expression of LHPP gene to different degrees; expression of LHPP gene (mRNA) ([3]; Li-7, 10 nM, FIG. 6A): induced the expression of LHPP gene to different degrees; expression of LHPP gene (mRNA) ([3]; PC3, 10 nM, FIG. 7A): induced the expression of LHPP gene to different degrees; expression of LHPP gene (mRNA) ([3]; SK-HEP-1, 10 nM, FIG. 6A): induced the expression of LHPP gene to different degrees; expression of LHPP gene (mRNA) ([3]; T24, 10 nM, FIG. 7A): induced the expression of LHPP gene to different degrees; expression of LHPP gene (mRNA) ([3]; U87MG, 10 nM, FIG. 7A): induced the expression of LHPP gene to different degrees; cell proliferation (cell viability, CCK-8) [4]: inhibited cell proliferation; combination index (CI) ([5]; high dose (25 nM to 100 nM) saRNA with Regorafenib 5 μM): < 0.3; combination index (CI) ([5]; saRNA with Cabozantinib 5 μM): < 1; combination index (CI) ([5]; saRNA with Lenvatinib 5 μM): > 1; combination index (CI) ([5]; saRNA with Sorafenib 5 μM): < 1
